Experimental data as given in article PMC10449631 (Nature Chemical Biology, 2023).
No end group written: not given here.

Columns and labels:
PaAP variant R194A [1] = molecular target: T1, PaAP variant R194A (Pseudomonas aeruginosa, UniProt Q02PA2, R194A); experiment: biochemical
T1 construct: PaAP (WT, residues 27–536); His6 (TEV cleavable) (N, cleaved yes); made in house; host or cells: E. coli SHuffle T7
Method: (§1) To test this, we produced the PaAP variant R194A to eliminate a likely salt bridge between the peptide COOH and the guanidinium of the protein arginine side chain.
(§2) Inhibition assays were carried out with the following peptides: linear-[…] (PaAP C-terminal residues), cyclic-[…], N-acetylated and C-amidated […]. IC50 values were determined by varying peptide concentration at a fixed substrate concentration (fixed at KM, (S) = 2 mM, PaAP concentration was 100 nM). KI was determined by assaying multiple fixed inhibitor concentrations (1,000 nM, 500 nM, 250 nM, 100 nM, 50 nM, 25 nM and 10 nM) at varying substrate concentrations under standard reaction conditions with Leu-pNA as a substrate (outlined above). KI values were determined by fitting the data to equation (1) (Morrison’s equation):1 v=1−Et+I+KI−Et+I+KI^2−4EtIKI/2Et where v is the velocity, Et is the total enzyme concentration, I is the concentration of inhibitor and KI is the equilibrium dissociation constant for the inhibitor.

PaAP variant R194A [2] = experiment: biochemical; design: species or system Pseudomonas aeruginosa; conditions: compared to full-length PaAP
Method: as §1, §2

T1 sequence (Q02PA2 37-516, looked up, stated change not applied): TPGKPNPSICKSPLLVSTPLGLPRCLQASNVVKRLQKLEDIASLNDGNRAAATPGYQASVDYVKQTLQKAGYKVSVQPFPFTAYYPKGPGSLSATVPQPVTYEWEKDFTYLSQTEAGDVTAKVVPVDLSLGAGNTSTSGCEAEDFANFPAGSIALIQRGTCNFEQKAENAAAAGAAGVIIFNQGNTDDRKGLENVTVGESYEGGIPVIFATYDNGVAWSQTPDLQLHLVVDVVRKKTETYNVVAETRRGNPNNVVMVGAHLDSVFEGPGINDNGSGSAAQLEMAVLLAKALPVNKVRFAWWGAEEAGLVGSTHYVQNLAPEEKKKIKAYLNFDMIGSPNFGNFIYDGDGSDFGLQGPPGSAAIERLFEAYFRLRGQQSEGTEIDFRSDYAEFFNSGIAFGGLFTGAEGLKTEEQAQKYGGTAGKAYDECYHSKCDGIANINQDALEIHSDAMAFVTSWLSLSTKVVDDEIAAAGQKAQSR

ERWGHDFIK [linear-ERWGHDFIK] was tested, and the IC50 (PaAP variant R194A [1]) was 306 µM and the “fold increase of IC50 with R194A variant” value (PaAP variant R194A [2]) was 100 fold.
